From PMC11859928, “Design, Synthesis, and Antiproliferative Activity of Novel Indole/1,2,4-Triazole Hybrids as Tubulin Polymerization Inhibitors” (Pharmaceuticals, 2025)
Where two headings read alike, the source gives them in different places.

Experiments:
K-562 = experiment: NCI five-dose assay; format: cell-based, human; conditions: K-562, Leukemia
SR = experiment: NCI five-dose assay; format: cell-based, human; conditions: Leukemia
EKVX = experiment: NCI five-dose assay; format: cell-based, human; conditions: Non-small cell lung cancer
NCI-H23 = experiment: NCI five-dose assay; format: cell-based, human; conditions: NCI-H23, Non-small cell lung cancer
NCI-H522 = experiment: NCI five-dose assay; format: cell-based, human; conditions: NCI-H522, Non-small cell lung cancer
COLO205 = experiment: NCI five-dose assay; format: cell-based, human; conditions: COLO205, Colon cancer
HCC-2998 = experiment: NCI five-dose assay; format: cell-based, human; conditions: HCC-2998, Colon cancer
HCT-15 = experiment: NCI five-dose assay; format: cell-based, human; conditions: HCT-15, Colon cancer
HT29 = experiment: NCI five-dose assay; format: cell-based, human; conditions: HT29, Colon cancer
SW-620 = experiment: NCI five-dose assay; format: cell-based, human; conditions: SW-620, Colon cancer
SF-268 = experiment: NCI five-dose assay; format: cell-based, human; conditions: SF-268, CNS cancer
SF-295 = experiment: NCI five-dose assay; format: cell-based, human; conditions: SF-295, CNS cancer
LOX IMVI = experiment: NCI five-dose assay; format: cell-based, human; conditions: Melanoma
MDA-MB-435 = experiment: NCI five-dose assay; format: cell-based, human; conditions: MDA-MB-435, Melanoma
UACC-257 = experiment: NCI five-dose assay; format: cell-based, human; conditions: Homo sapiens, UACC-257, Melanoma
NCI/ADR-RES = experiment: NCI five-dose assay; format: cell-based, human; conditions: Ovarian cancer
SK-OV-3 = experiment: NCI five-dose assay; format: cell-based, human; conditions: SK-OV-3, Ovarian cancer
TK-10 = experiment: NCI five-dose assay; format: cell-based, human; conditions: TK-10, Renal cancer
DU-145 = experiment: NCI five-dose assay; format: cell-based, human; conditions: DU-145, Prostate cancer
T-47D = experiment: NCI five-dose assay; format: cell-based, human; conditions: Breast cancer
CNS cancer subpanel = experiment: NCI five-dose assay, subpanel mean; format: cell-based, human
Melanoma subpanel = experiment: NCI five-dose assay, subpanel mean; format: cell-based, human
Prostate cancer subpanel = experiment: NCI five-dose assay, subpanel mean; format: cell-based, human
[1] = system: panel of 60 human tumor cell lines; experiment: NCI five-dose assay, full panel; format: cell-based
tubulin = target: T1, tubulin (Sus scrofa, UniProt P02550+P02554); experiment: Tubulin polymerization inhibitory assay; format: biochemical
T1 construct: purchased Cytoskeleton Inc., Denver, CO, USA
Text: The substances’ effects on tubulin polymerization were examined using the Tubulin Polymerization Assay Kit (Cytoskeleton Inc., Denver, CO, USA) according to the supplier’s instructions, with details described in Appendix A..
The activity of compounds on tubulin polymerization was investigated using the Tubulin Polymerization Assay Kit (Cytoskeleton Inc., Denver, CO, USA), which works via fluorescent reporter enhancement. […] Docetaxel and vincristine (Apoteket AB, Stockholm, Sweden) served as positive stabilizing and destabilizing controls. Both were used at a 3 µM concentration in PBS.

[2] = Homo sapiens, 48 h, read-out: LC50 (the source's name)
[3] = Homo sapiens, read-out: GI50 Conc. per Cell Lines

T1 sequence (P02554 whole entry): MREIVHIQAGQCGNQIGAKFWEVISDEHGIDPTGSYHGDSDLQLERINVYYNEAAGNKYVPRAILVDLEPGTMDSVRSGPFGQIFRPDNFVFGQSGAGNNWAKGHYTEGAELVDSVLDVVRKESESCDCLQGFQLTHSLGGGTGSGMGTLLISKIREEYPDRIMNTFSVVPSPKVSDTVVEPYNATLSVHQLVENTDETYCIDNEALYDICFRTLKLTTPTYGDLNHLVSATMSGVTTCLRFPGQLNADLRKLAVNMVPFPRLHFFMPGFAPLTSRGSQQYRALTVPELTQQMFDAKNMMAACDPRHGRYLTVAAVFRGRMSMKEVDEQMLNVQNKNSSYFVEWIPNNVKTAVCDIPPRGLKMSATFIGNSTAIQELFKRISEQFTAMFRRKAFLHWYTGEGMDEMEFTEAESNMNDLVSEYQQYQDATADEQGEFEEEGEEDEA
T1 sequence (P02550 whole entry): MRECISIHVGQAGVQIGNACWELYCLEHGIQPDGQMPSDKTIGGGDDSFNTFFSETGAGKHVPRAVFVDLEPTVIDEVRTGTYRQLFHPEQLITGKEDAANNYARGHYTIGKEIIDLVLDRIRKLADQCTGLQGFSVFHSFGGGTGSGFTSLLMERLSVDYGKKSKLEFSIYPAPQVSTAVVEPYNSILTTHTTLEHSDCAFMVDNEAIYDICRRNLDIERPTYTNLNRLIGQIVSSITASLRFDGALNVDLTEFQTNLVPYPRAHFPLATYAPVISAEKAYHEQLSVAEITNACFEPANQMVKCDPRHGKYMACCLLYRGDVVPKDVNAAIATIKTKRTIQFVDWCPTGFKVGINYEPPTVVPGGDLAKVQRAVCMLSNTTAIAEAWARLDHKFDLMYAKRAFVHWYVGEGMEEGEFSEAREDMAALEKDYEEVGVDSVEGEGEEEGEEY

Compound: Cc1ccc(/C(CSc2nnc(-c3c[nH]c4ccccc34)n2-c2ccccc2)=N/O)cc1 [Compound 7h, (Z)-2-((5-(1H-Indol-3-yl)-4-phenyl-4H-1,2,4-triazol-3-yl)thio)-1-(p-tolyl)ethanone Oxime]
- CC50 (K-562; Homo sapiens, K562, 48 h, read-out: LC50 (the source's name)): > 100 µM
- GI50 (K-562; Homo sapiens, K562, read-out: GI50 Conc. per Cell Lines): 2.01 µM
- TGI Conc. per Cell Lines (K-562): 4.97 µM
- CC50 (SR; [2]): > 100 µM
- TGI Conc. per Cell Lines (SR): ˃100 µM
- CC50 (EKVX; [2]): > 100 µM
- GI50 (EKVX; [3]): 2.15 µM
- TGI Conc. per Cell Lines (EKVX): 5.58 µM
- CC50 (NCI-H23; [2]): > 100 µM
- GI50 (NCI-H23; [3]): 10.1 µM
- TGI Conc. per Cell Lines (NCI-H23): 52.20 µM
- CC50 (NCI-H522; [2]): > 100 µM
- GI50 (NCI-H522; [3]): 2.24 µM
- TGI Conc. per Cell Lines (NCI-H522): 6.04 µM
- TGI Conc. per Cell Lines (COLO205): 37.40 µM
- CC50 (COLO205; Homo sapiens, COLO 205, 48 h, read-out: LC50 (the source's name)): > 100 µM
- GI50 (COLO205; Homo sapiens, COLO 205, read-out: GI50 Conc. per Cell Lines): 3.77 µM
- TGI Conc. per Cell Lines (HCC-2998): 3.93 µM
- CC50 (HCC-2998; [2]): 7.39 µM
- GI50 (HCC-2998; [3]): 2.09 µM
- TGI Conc. per Cell Lines (HCT-15): 3.34 µM
- CC50 (HCT-15; [2]): 6.37 µM
- GI50 (HCT-15; [3]): 1.75 µM
- TGI Conc. per Cell Lines (HT29): 4.43 µM
- GI50 (HT29; Homo sapiens, HT-29, read-out: GI50 Conc. per Cell Lines): 1.99 µM
- CC50 (SW-620; [2]): 7.04 µM
- GI50 (SW-620; [3]): 1.79 µM
- TGI Conc. per Cell Lines (SW-620): 3.55 µM
- CC50 (SF-268; [2]): > 100 µM
- GI50 (SF-268; [3]): 1.99 µM
- TGI Conc. per Cell Lines (SF-268): 4.66 µM
- CC50 (SF-295; [2]): 6.15 µM
- GI50 (SF-295; [3]): 1.64 µM
- TGI Conc. per Cell Lines (SF-295): 3.18 µM
- CC50 (LOX IMVI; [2]): 5.73 µM
- GI50 (LOX IMVI; [3]): 1.75 µM
- TGI Conc. per Cell Lines (LOX IMVI): 3.17 µM
- CC50 (MDA-MB-435; [2]): 5.72 µM
- GI50 (MDA-MB-435; [3]): 1.63 µM
- TGI Conc. per Cell Lines (MDA-MB-435): 3.05 µM
- CC50 (UACC-257; 48 h, read-out: LC50 (the source's name)): > 100 µM
- GI50 (UACC-257; read-out: GI50 Conc. per Cell Lines): 2.57 µM
- LC50 (NCI/ADR-RES; Homo sapiens, 48 h): 7.59 µM
- GI50 (NCI/ADR-RES; [3]): 2 µM
- TGI Conc. per Cell Lines (NCI/ADR-RES): 3.90 µM
- CC50 (SK-OV-3; [2]): 7.89 µM
- GI50 (SK-OV-3; [3]): 1.68 µM
- TGI Conc. per Cell Lines (SK-OV-3): 3.64 µM
- CC50 (TK-10; [2]): 7.9 µM
- GI50 (TK-10; [3]): 1.9 µM
- TGI Conc. per Cell Lines (TK-10): 3.87 µM
- TGI Conc. per Cell Lines (DU-145): 4.01 µM
- GI50 (DU-145; [3]): 1.94 µM
- TGI Conc. per Cell Lines (T-47D): 4.75 µM
- LC50 (concentration killing 50% of cells) (T-47D; Homo sapiens, T47D, 48 h): > 100 µM
- GI50 (T-47D; Homo sapiens, T47D, read-out: GI50 Conc. per Cell Lines): 2.07 µM
- GI50 Selectivity Ratio (MID a/MID b) (CNS cancer subpanel; CNS cancer subpanel): 1.04
- GI50 (CNS cancer subpanel; Homo sapiens, average sensitivity of all cell lines of the CNS cancer subpanel, read-out: GI50 Subpanel MID b): 2.86 µM
- GI50 (Melanoma subpanel; Homo sapiens, average sensitivity of all cell lines of the Melanoma subpanel, read-out: GI50 Subpanel MID b): 2.78 µM
- GI50 Selectivity Ratio (MID a/MID b) (Melanoma subpanel; Melanoma subpanel): 1.08
- GI50 (Prostate cancer subpanel; Homo sapiens, average sensitivity of all cell lines of the Prostate cancer subpanel, read-out: GI50 Subpanel MID b): 1.85 µM
- GI50 Selectivity Ratio (MID a/MID b) (Prostate cancer subpanel; Prostate cancer subpanel): 1.61
- GI50 ([1]; average sensitivity of all cell lines, read-out: GI50 MID a): 3 µM
- GI50 ([1]; most of the tested cell lines across nine subpanels, read-out: GI50 values, range across nine subpanels): 1.85 to 5.76 µM
- %inhibition (tubulin; conc 0.01 (unit not given; IC50 from this curve in µg/ml)): 2.01%
- %inhibition (tubulin; conc 0.1 (unit not given; IC50 from this curve in µg/ml)): 8.94%
- %inhibition (tubulin; conc 1 (unit not given; IC50 from this curve in µg/ml)): 26.1%
- %inhibition (tubulin; conc 10 (unit not given; IC50 from this curve in µg/ml)): 49.9%
- %inhibition (tubulin; conc 100 (unit not given; IC50 from this curve in µg/ml)): 76.7%
- IC50 (tubulin; read-out: Tub. IC50±SD (converted)): 18.4 µM
- IC50 (tubulin; read-out: Tubulin Inhibitory Effect, IC50): 18.4 ± 0.7 µM
